Where “and” joins values, the source holds several entries; their conditions need not be identical. Equal values may be shown once.
Details: Fluid (supercritical or subcritical phases), Buoyancy - hydrostatic balance with magnetic suspension - two sinkers

CCC [propane]
Details | mass density
400 K, 11790 kPa | 357.33 kg/m3
400 K, 11791 kPa | 357.335 kg/m3 [middle of 4 runs]
400 K, 15926 kPa | 390.231 kg/m3 [middle of 6 runs]
400 K, 15927 kPa | 390.233 kg/m3
400 K, 17448 kPa | 398.971 kg/m3
400 K, 17449 kPa | 398.975 kg/m3
400 K, 17450 kPa | 398.984 kg/m3 and 398.981 kg/m3 and 398.978 kg/m3
400 K, 29918 kPa | 445.478 kg/m3
400 K, 29922 kPa | 445.491 kg/m3
400 K, 29927 kPa | 445.504 kg/m3
400 K, 29932 kPa | 445.516 kg/m3
400 K, 29938 kPa | 445.533 kg/m3
400 K, 35836 kPa | 460.067 kg/m3
400 K, 35844 kPa | 460.086 kg/m3
400 K, 35852 kPa | 460.105 kg/m3
400 K, 35860 kPa | 460.123 kg/m3
400 K, 35868 kPa | 460.142 kg/m3
400.01 K, 3901.8 kPa | 73.2154 kg/m3
400.01 K, 3902 kPa | 73.2198 kg/m3
400.01 K, 10112 kPa | 336.233 kg/m3 and 336.235 kg/m3 and 336.236 kg/m3
420 K, 352.46 kPa | 4.5346 kg/m3 and 4.5345 kg/m3 and 4.5347 kg/m3
420 K, 352.47 kPa | 4.5348 kg/m3
420 K, 629.66 kPa | 8.229 kg/m3
420 K, 629.67 kPa | 8.2291 kg/m3
420 K, 990.94 kPa | 13.2257 kg/m3
420 K, 991.11 kPa | 13.2302 kg/m3
420 K, 992.11 kPa | 13.2437 kg/m3
420 K, 993.37 kPa | 13.2618 kg/m3
420 K, 994.27 kPa | 13.2745 kg/m3
420 K, 1638.8 kPa | 22.7735 kg/m3 and 22.7726 kg/m3
420 K, 1639 kPa | 22.7748 kg/m3
420 K, 1639.4 kPa | 22.7815 kg/m3 and 22.7817 kg/m3
420 K, 2549.6 kPa | 37.6977 kg/m3
420 K, 2549.8 kPa | 37.6995 kg/m3 and 37.7007 kg/m3 and 37.7006 kg/m3
420 K, 3591.6 kPa | 57.6483 kg/m3
420 K, 3591.8 kPa | 57.649 kg/m3
420 K, 3592 kPa | 57.6554 kg/m3 and 57.6545 kg/m3
420 K, 3592.3 kPa | 57.6606 kg/m3
420 K, 4243.9 kPa | 72.25 kg/m3
420 K, 4244 kPa | 72.2514 kg/m3
420 K, 5253.6 kPa | 99.376 kg/m3 and 99.3762 kg/m3
420 K, 5253.7 kPa | 99.3774 kg/m3 and 99.3766 kg/m3 and 99.3783 kg/m3
420 K, 6605.8 kPa | 147.752 kg/m3
420 K, 6605.9 kPa | 147.756 kg/m3 and 147.757 kg/m3
420 K, 6606 kPa | 147.761 kg/m3 and 147.757 kg/m3
420 K, 6612.9 kPa | 148.072 kg/m3
420 K, 6613 kPa | 148.069 kg/m3
420 K, 6613.1 kPa | 148.07 kg/m3 and 148.073 kg/m3
420 K, 6613.2 kPa | 148.071 kg/m3
420 K, 6780.5 kPa | 155.128 kg/m3 and 155.129 kg/m3
420 K, 6780.6 kPa | 155.129 kg/m3 and 155.128 kg/m3
420 K, 7709.3 kPa | 196.595 kg/m3
420 K, 7709.5 kPa | 196.603 kg/m3
420 K, 7709.6 kPa | 196.603 kg/m3
420 K, 7709.7 kPa | 196.608 kg/m3 and 196.605 kg/m3 and 196.607 kg/m3
420 K, 7709.8 kPa | 196.607 kg/m3
420 K, 7709.9 kPa | 196.61 kg/m3
420 K, 8228.3 kPa | 219.041 kg/m3
420 K, 8228.4 kPa | 219.041 kg/m3 and 219.043 kg/m3
420 K, 8228.5 kPa | 219.044 kg/m3 and 219.042 kg/m3 and 219.043 kg/m3
420 K, 8228.6 kPa | 219.042 kg/m3 and 219.043 kg/m3
420 K, 8848 kPa | 242.768 kg/m3 and 242.766 kg/m3 and 242.77 kg/m3
420 K, 8848.1 kPa | 242.767 kg/m3
420 K, 8848.2 kPa | 242.772 kg/m3 and 242.768 kg/m3
420 K, 10126 kPa | 279.933 kg/m3 and 279.935 kg/m3
420 K, 10127 kPa | 279.933 kg/m3 and 279.936 kg/m3 and 279.935 kg/m3
420 K, 13593 kPa | 335.538 kg/m3 [middle of 4 runs]
420 K, 20930 kPa | 389.39 kg/m3
420 K, 20931 kPa | 389.391 kg/m3 and 389.393 kg/m3
420.01 K, 629.66 kPa | 8.2291 kg/m3
420.01 K, 629.67 kPa | 8.229 kg/m3
420.01 K, 4243.9 kPa | 72.2481 kg/m3 and 72.2491 kg/m3 and 72.2487 kg/m3
420.01 K, 4244 kPa | 72.2505 kg/m3 and 72.2532 kg/m3 and 72.2519 kg/m3
420.01 K, 6606 kPa | 147.759 kg/m3
420.01 K, 6606.4 kPa | 147.771 kg/m3
420.01 K, 13593 kPa | 335.538 kg/m3 and 335.537 kg/m3
420.01 K, 20931 kPa | 389.392 kg/m3 and 389.394 kg/m3
420.01 K, 20932 kPa | 389.393 kg/m3
440 K, 368.32 kPa | 4.5138 kg/m3 and 4.514 kg/m3 and 4.5139 kg/m3
440 K, 658.93 kPa | 8.1892 kg/m3
440 K, 658.95 kPa | 8.1897 kg/m3
440 K, 1032.5 kPa | 13.0703 kg/m3 and 13.0712 kg/m3
440 K, 1032.8 kPa | 13.0744 kg/m3
440 K, 1733.1 kPa | 22.7483 kg/m3
440 K, 1733.2 kPa | 22.75 kg/m3 and 22.7499 kg/m3 and 22.7504 kg/m3
440 K, 1733.4 kPa | 22.752 kg/m3
440 K, 2721.5 kPa | 37.7309 kg/m3
440 K, 2721.7 kPa | 37.7344 kg/m3
440 K, 2721.8 kPa | 37.7372 kg/m3
440 K, 2721.9 kPa | 37.7372 kg/m3
440 K, 2722.1 kPa | 37.7402 kg/m3
440 K, 3865 kPa | 57.5204 kg/m3
440 K, 3865.3 kPa | 57.5255 kg/m3
440 K, 3865.4 kPa | 57.5267 kg/m3
440 K, 3865.5 kPa | 57.5266 kg/m3
440 K, 3865.7 kPa | 57.532 kg/m3
440 K, 4613.1 kPa | 72.2413 kg/m3 [middle of 4 runs]
440 K, 5803.9 kPa | 99.3306 kg/m3 and 99.3318 kg/m3
440 K, 5804 kPa | 99.3333 kg/m3 and 99.3338 kg/m3
440 K, 7526.8 kPa | 147.61 kg/m3 and 147.611 kg/m3
440 K, 7535.9 kPa | 147.904 kg/m3 and 147.903 kg/m3
440 K, 7536 kPa | 147.904 kg/m3
440 K, 7762.5 kPa | 154.944 kg/m3
440 K, 7762.6 kPa | 154.945 kg/m3 and 154.944 kg/m3
440 K, 9826.6 kPa | 218.701 kg/m3 and 218.702 kg/m3 and 218.7 kg/m3
440 K, 9826.7 kPa | 218.702 kg/m3 and 218.7 kg/m3 and 218.701 kg/m3
440.01 K, 658.93 kPa | 8.1888 kg/m3
440.01 K, 658.95 kPa | 8.1894 kg/m3 and 8.1895 kg/m3
440.01 K, 1032.5 kPa | 13.0692 kg/m3
440.01 K, 1032.8 kPa | 13.0752 kg/m3
440.01 K, 4613.1 kPa | 72.2397 kg/m3 and 72.2408 kg/m3 and 72.2337 kg/m3
440.01 K, 7526.8 kPa | 147.613 kg/m3 and 147.61 kg/m3 and 147.611 kg/m3
440.01 K, 7526.9 kPa | 147.613 kg/m3 and 147.612 kg/m3
460 K, 384.07 kPa | 4.4943 kg/m3 [middle of 5 runs]
460 K, 687.74 kPa | 8.1494 kg/m3
